Data: article PMC5164944 (Biochemical pharmacology, 2016)
Like-named read-outs stand apart in the source and are kept apart here. Marks after values point to notes of the source that are not given here.

Assays:
[1] = Steady state plasma concentrations in subjects on chronic bupropion XL; settings: for Mean [I] (Range, n=5): 5 subjects, normalized to 300 mg/day bupropion dose
[2] = biological target: T1, CYP2D6 (Homo sapiens, UniProt P10635); assay: Reversible CYP2D6 inhibition in human liver microsomes; settings: for effect on CYP2D6 activity: 50 μM test concentration, HLM
[3] = female, human, 2.5 μM
[4] = system: CYP2D6 mRNA; assay: in vitro; settings: human
[5] = biological target: T1, CYP2D6; assay: CYP2D6 inhibition in human suspension hepatocytes
[6] = Plasma protein binding by ultracentrifugation; assay type: in vitro ADME, human; settings: unbound fraction in plasma
[7] = biological target: T1, CYP2D6; assay: Static prediction of in vivo reversible CYP2D6 inhibition; settings: for share of the predicted CYP2D6 inhibition in vivo caused by the compound: reversible inhibition only
[8] = system: CYP2D6 mRNA; assay: CYP2D6 mRNA in plated human hepatocytes; settings: for mean CYP2D6 mRNA levels, % of vehicle treated cells: three donors, 72 hours
[9] = Partitioning into human suspension hepatocytes; settings: 1 μM, 30 min, total concentrations
[10] = system: CYP2D6 mRNA; assay: CYP2D6 mRNA downregulation in HepG2 cells; settings: for EC50: read-out: EC50 of CYP2D6 mRNA downregulation, 72 hrs
[11] = system: CYP2D6 protein expression; assay: CYP2D6 protein expression in HepG2 cells; settings: 72 hrs; for effect on CYP2D6 protein expression: erythrohydrobupropion 5 μM, threohydrobupropion 20 μM, R,R-OH-bupropion 20 μM
[12] = biological target: T1, CYP2D6; assay: CYP2D6 activity in plated human hepatocytes; settings: after 72 hr treatment
[13] = Media concentrations of bupropion and metabolites in plated human hepatocytes; settings: for concentration of metabolite formed in bupropion treated cells: plated human hepatocytes treated with bupropion 2.5 μM; for Cmedia at 72 hr: 1 hr incubation after 71 hours treatment; for Cmedia at 1 hr: after 1 hr incubation without pretreatment
[14] = biological target: T1, CYP2D6; settings: from HepG2 Emax/EC50 and circulating concentrations, 300 mg/day bupropion
[15] = system: CYP3A4 mRNA; assay: CYP3A4 mRNA in plated human hepatocytes; assay type: cell-based; settings: 72 hours
[16] = cited from earlier work
[17] = system: CYP2D6; settings: cited from earlier work

T1 sequence (P10635 whole entry): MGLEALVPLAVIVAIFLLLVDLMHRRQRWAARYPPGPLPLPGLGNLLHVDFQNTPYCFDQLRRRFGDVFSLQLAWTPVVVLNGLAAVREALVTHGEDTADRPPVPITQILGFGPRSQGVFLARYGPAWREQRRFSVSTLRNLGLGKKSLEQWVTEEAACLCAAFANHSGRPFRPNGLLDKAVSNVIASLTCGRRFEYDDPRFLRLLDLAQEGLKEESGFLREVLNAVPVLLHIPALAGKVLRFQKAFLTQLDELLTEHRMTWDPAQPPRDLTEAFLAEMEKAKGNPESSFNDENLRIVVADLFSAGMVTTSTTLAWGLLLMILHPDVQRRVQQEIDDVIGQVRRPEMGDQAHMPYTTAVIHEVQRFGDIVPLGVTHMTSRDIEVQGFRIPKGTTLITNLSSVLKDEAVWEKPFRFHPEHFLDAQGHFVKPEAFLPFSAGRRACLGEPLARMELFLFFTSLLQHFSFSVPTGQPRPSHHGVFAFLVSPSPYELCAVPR

Structure (SMILES): C[C@@H](NC(C)(C)C)C(=O)c1ccc(O)c(Cl)c1 [4′OH-bupropion, 4′-OH-bupropion]
- Mean [I] (Range, n=5) ([1]; steady state plasma): 0.01 µM
- effect on CYP2D6 activity [2]: no effect

Structure (SMILES): CC(NC(C)(C)C)C(=O)c1cccc(Cl)c1 (stereo not shown) [Bupropion]
- reduction of media concentration at the end of the pretreatment ([3]; 71 h): 93%
- Cmedia at 72 hr ([3]; 72 h): 1.7 ± 0.5 µM
- EC50 at 72 h [4]: 210 nM
- IC50 [5]: 13000 nM

Structure (SMILES): CC(NC(C)(C)C)C(O)c1cccc(Cl)c1 (stereo not drawn) [Erythro-hydrobupropion, erythrohydrobupropion]
- fu,p (S.D. n=3) [6]: 0.7±0.1
- share of the predicted CYP2D6 inhibition in vivo caused by the compound [7]: 9%
- % decrease in CYP2D6 mRNA at 72 hrs [8]: 80%
- mean CYP2D6 mRNA levels, % of vehicle treated cells [8]: 20%
- cell concentration fold higher than medium [9]: 9 fold
- maximum decrease in CYP2D6 mRNA ([10]; 72 hrs): 85%
- EC50 [10]: 1110 nM
- effect on CYP2D6 protein expression [11]: slightly less effective
- Apparent Percent Inhibition at 72 hrs [12]: 93 ± 1%
- circulating concentration fold higher than S-bupropion ([1]; steady state plasma): ~3 fold
- circulating concentration fold lower than threohydrobupropion ([1]; steady state plasma): about 6 fold
- Mean [I] (Range, n=5) ([1]; steady state plasma): 0.29 (0.19–0.41) μM
- concentration of metabolite formed in bupropion treated cells [13]: 80 nM
- Cmedia at 72 hr ([13]; plated human hepatocytes): 2.1 ± 0.3 µM
- Cmedia at 1 hr ([13]; plated human hepatocytes): 1.6 ± 0.1 µM
- predicted decrease in CYP2D6 mRNA if compound acted alone at steady state [14]: 18%
- fold more potent CYP2D6 inhibitor than threohydrobupropion ([2]; based on IC50 values in HLM): ~10 fold

Structure (SMILES): C[C@H]1NC(C)(C)CO[C@]1(O)c1cccc(Cl)c1 [OH-bupropion, hydroxybupropion]
- cell concentration fold higher than medium [9]: 11 fold
- concentration of metabolite formed in bupropion treated cells [13]: 120 nM

Structure (SMILES): C[C@H]1NC(C)(C)CO[C@]1(O)c1cccc(Cl)c1 [R,R-OH-bupropion]
- fu,p (S.D. n=3) [6]: 0.5±0.1
- fold higher I/Ki than S,S-OH-bupropion [7]: 36 fold
- share of the predicted CYP2D6 inhibition in vivo caused by the compound [7]: 65%
- change in CYP3A4 mRNA [15]: significantly increased CYP3A4 mRNA
- R,R-OH-bupropion to S,S-OH-bupropion ratio ([16]; single dose AUCs): 44–65
- circulating concentration fold higher than bupropion and S,S-OH-bupropion ([16]; single dose of bupropion): up to 65 fold
- % decrease in CYP2D6 mRNA at 72 hrs [8]: 72%
- mean CYP2D6 mRNA levels, % of vehicle treated cells [8]: 28%
- effect on CYP2D6 mRNA ([10]; 5-50 μM, 72 hrs): weakest effect
- effect on CYP2D6 protein expression [11]: no effect
- Apparent Percent Inhibition at 72 hrs [12]: 83 ± 3%
- steady state concentration ratio R,R-OH-bupropion / S,S-OH-bupropion ([1]; steady state plasma): 13 fold
- Mean [I] (Range, n=5) ([1]; steady state plasma): 5.0 (3.0–9.4) μM
- Cmedia at 72 hr ([13]; plated human hepatocytes): 19 ± 3 µM
- Cmedia at 1 hr ([13]; plated human hepatocytes): 16 ± 1 µM
- reduction of media concentration at the end of the pretreatment ([13]; plated human hepatocytes, versus initial media concentration added): 33%
- fold more potent CYP2D6 inhibitor than S,S-OH-bupropion ([2]; based on IC50 values in HLM): 3 fold

Structure (SMILES): C[C@@H](NC(C)(C)C)C(=O)c1cccc(Cl)c1 [R-Bupropion, R-bupropion, reference compound]
- fu,p (S.D. n=3) [6]: 0.5±0.1
- Mean [I] (Range, n=5) ([1]; steady state plasma): 0.22 (0.05–0.34) μM

Structure (SMILES): C[C@@H]1NC(C)(C)CO[C@@]1(O)c1cccc(Cl)c1 [S,S-OH-bupropion]
- fu,p (S.D. n=3) [6]: 0.5±0.1
- % decrease in CYP2D6 mRNA at 72 hrs [8]: 74%
- mean CYP2D6 mRNA levels, % of vehicle treated cells [8]: 26%
- maximum decrease in CYP2D6 mRNA ([10]; 72 hrs): 85–88%
- EC50 [10]: 200 nM
- downregulation of CYP2D6 protein expression ([11]; 5 μM, western blot): > 50%
- Apparent Percent Inhibition at 72 hrs [12]: 60 ± 11%
- circulating concentration fold higher than S-bupropion ([1]; steady state plasma): ~3 fold
- circulating concentration fold lower than threohydrobupropion ([1]; steady state plasma): about 6 fold
- Mean [I] (Range, n=5) ([1]; steady state plasma): 0.39 ^* (0.26–0.67) μM
- Cmedia at 72 hr ([13]; plated human hepatocytes): 1.5 ± 0.2 µM
- Cmedia at 1 hr ([13]; plated human hepatocytes): 1.3 ± 0.1 µM

Structure (SMILES): C[C@H](NC(C)(C)C)C(=O)c1cccc(Cl)c1 [S-Bupropion, S-bupropion, reference compound]
- fu,p (S.D. n=3) [6]: 0.6±0.1
- Mean [I] (Range, n=5) ([1]; steady state plasma): 0.08 ^* (0.02–0.11) μM

Structure (SMILES): C[C@H](NC(C)(C)C)[C@@H](O)c1cccc(Cl)c1 [Threo-hydrobupropion, threohydrobupropion]
- fu,p (S.D. n=3) [6]: 1.0±0.1
- share of the predicted CYP2D6 inhibition in vivo caused by the compound [7]: approximately 21%
- % decrease in CYP2D6 mRNA at 72 hrs [8]: 82%
- mean CYP2D6 mRNA levels, % of vehicle treated cells [8]: 18%
- cell concentration fold higher than medium [9]: 11 fold
- maximum decrease in CYP2D6 mRNA ([10]; 72 hrs): 78%
- fold less potent in downregulating CYP2D6 mRNA than the other compounds ([10]; based on EC50): 10–50 fold
- EC50 [10]: 9950 nM
- Apparent Percent Inhibition at 72 hrs [12]: 92 ± 2%
- steady state concentration fold higher than erythrohydrobupropion ([1]; average steady state plasma): 7.2 fold
- Mean [I] (Range, n=5) ([1]; steady state plasma): 2.1 (1.1–3.5) μM
- concentration of metabolite formed in bupropion treated cells [13]: 1400 nM
- Cmedia at 72 hr ([13]; plated human hepatocytes): 8.2 ± 1.4 µM
- Cmedia at 1 hr ([13]; plated human hepatocytes): 7.1 ± 0.6 µM
- predicted decrease in CYP2D6 mRNA if compound acted alone at steady state [14]: 14%

Structure (SMILES): CNCCCN1c2ccccc2CCc2ccccc21 [desipramine]
- fraction metabolized by CYP2D6 (fm) [17]: 90%

Structure (SMILES): CC(NC(C)(C)C)C(O)c1ccc(O)c(Cl)c1 (stereo not drawn) [threo-4′OH-bupropion, threo-4′-OH-hydrobupropion]
- effect on CYP2D6 activity [2]: no effect

Structure (SMILES): COc1ccc(C(CN(C)C)C2(O)CCCCC2)cc1 (stereo not shown) [venlafaxine]
- fraction metabolized by CYP2D6 (fm) [17]: 80%
